Experimental data reported in publication PMC7122770, “Potential endocrine disrupting properties of toys for babies and infants” (PLoS ONE, 2020).
Counter-ions that a name gives are not always drawn. Like-named read-outs stand apart in the source and are kept apart here.

Columns and labels:
[1] = target: T1, human estrogen receptor (Estrogen Receptor α) (Homo sapiens, UniProt P03372); assay: Analysis of detected pure substances in ER-CALUX; assay type: cell-based; conditions: for % E2 max: mean of triplicates
T1 sequence (P03372 1-595): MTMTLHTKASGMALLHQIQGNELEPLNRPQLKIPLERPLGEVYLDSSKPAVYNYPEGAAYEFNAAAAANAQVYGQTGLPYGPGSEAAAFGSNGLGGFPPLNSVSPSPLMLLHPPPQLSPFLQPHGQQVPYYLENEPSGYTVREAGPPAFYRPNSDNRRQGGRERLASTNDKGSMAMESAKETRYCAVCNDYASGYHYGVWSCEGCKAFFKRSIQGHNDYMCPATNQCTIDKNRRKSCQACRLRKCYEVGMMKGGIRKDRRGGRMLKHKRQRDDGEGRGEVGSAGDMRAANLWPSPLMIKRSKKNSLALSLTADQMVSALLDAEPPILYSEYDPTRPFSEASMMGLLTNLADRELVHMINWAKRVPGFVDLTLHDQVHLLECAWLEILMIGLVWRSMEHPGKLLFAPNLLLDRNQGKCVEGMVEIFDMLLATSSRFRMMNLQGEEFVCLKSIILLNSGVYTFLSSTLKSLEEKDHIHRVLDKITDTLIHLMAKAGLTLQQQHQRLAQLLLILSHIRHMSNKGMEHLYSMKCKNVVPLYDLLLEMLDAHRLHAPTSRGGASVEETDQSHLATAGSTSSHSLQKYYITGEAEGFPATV

[2] = cited from earlier work
[3] = test system: U2-OS osteosarcoma cell line; assay: Cytotoxic effects / cell viability in the CALUX cells; assay type: cell-based, human; conditions: two highest concentrations in ER-CALUX
[4] = cited from earlier work; remark: listed apart in the source
[5] = Toxicological reference values (TDI, ADI, reference dose); parameters: species or system human
Excerpt: Risks were estimated by comparing the daily exposure (DE) to toxicological reference values (TRV) when available.

[6] = 2,50E-04 mol/l in bioassay medium
[7] = 2,50E-06 mol/l in bioassay medium
[8] = 5,00E-04 mol/l in bioassay medium
[9] = 5,00E-05 mol/l in bioassay medium
[10] = 5,00E-06 mol/l in bioassay medium
[11] = pure substance in ER-CALUX, read-out: EC50

**Q.** Which results are given for `CC(C)C(=O)OCC(C)(C)C(OC(=O)C(C)C)C(C)C` (centres unmarked) [2,2,4-Trimethyl-1,3-pentanediol diisobutyrate]?
**A.** EC50 [1]: > 500 µM; Estrogen active [yes/no] ([1]; pure substance in ER-CALUX): no; Estrogen active [yes/no] ([1]; pure substance in ER-CALUX, listed as TXIB): negative

**Q.** For `O=C(c1ccccc1)c1ccccc1` [Benzophenone], which “tolerable daily intake (TDI)” value ([2]; recommended by the European Food Safety Agency ref 43) is on record?
**A.** 30 μg/kg body weight per day

**Q.** For `CCCCOC(=O)CC(O)(CC(=O)OCCCC)C(=O)OCCCC` [Tributyl citrate (TBC), Tributyl citrate], which cell viability [3] is on record?
**A.** decrease in cell viability

**Q.** What about the “% E2 max” value [1, 6] of the same compound?
**A.** 8%

**Q.** And the “% E2 max” value [1, 7]?
**A.** 4%

**Q.** And the “% E2 max” value [1, 8]?
**A.** 3%

**Q.** What about the “% E2 max” value [1, 9] of the same compound?
**A.** 34%

**Q.** What about the “% E2 max” value [1, 10] of the same compound?
**A.** 6%

**Q.** What about the “Estrogen active [yes/no]” value ([1]; pure substance in ER-CALUX) of the same compound?
**A.** yes

**Q.** And the “Estrogen active [yes/no]” value ([1]; pure substance in ER-CALUX, listed as TBC)?
**A.** low, but significant estrogen activity

**Q.** What about the EC50 [1, 11] of the same compound?
**A.** 50 µM

**Q.** Which “% E2 max” value [1, 7] does the source give for `CC(C)(c1ccc(O)cc1)c1ccc(O)cc1` [Bisphenol A (BPA), Bisphenol A] here?
**A.** 151%

**Q.** And the “% E2 max” value [1, 10]?
**A.** 154%

**Q.** What about the “% E2 max” value ([1]; 5,00E-07 mol/l in bioassay medium) of the same compound?
**A.** 116%

**Q.** And the “% E2 max” value ([1]; 5,00E-08 mol/l in bioassay medium)?
**A.** 11%

**Q.** What about the “% E2 max” value ([1]; 5,00E-09 mol/l in bioassay medium) of the same compound?
**A.** 5%

**Q.** And the “factor less estrogen active than the natural estrogen 17β-estradiol” value ([1]; based on response curves in ER-CALUX (Fig 2))?
**A.** ~30.000

**Q.** And the “temporary tolerable daily intake (TDI)” value ([2]; recommended by EFSA, taking into account endocrine effects ref 43)?
**A.** 4 μg/kg body weight per day

**Q.** What does the source list for `CC(C)CCCCCCOC(=O)C1CCCCC1C(=O)OCCCCCCC(C)C` (centres unmarked) [Diisononyl cyclohexane-1,2-dicarboxylate]?
**A.** Estrogen active [yes/no] ([1]; pure substance in ER-CALUX): no; Estrogen active [yes/no] ([1]; pure substance in ER-CALUX, listed as DINCH): negative; EC50 [1, 11]: > 500 µM; lowest reference value published [2]: 0.7 mg/kg bw/day

**Q.** Which “% E2 max” value [1, 6] does the source give for `CCOC(=O)c1ccccc1C(=O)OCC` [Diethyl phthalate (DEP), Diethyl phthalate] here?
**A.** 47%

**Q.** What about the “% E2 max” value [1, 7] of the same compound?
**A.** 9%

**Q.** What about the “% E2 max” value [1, 8] of the same compound?
**A.** 69%

**Q.** And the “% E2 max” value [1, 9]?
**A.** 23%

**Q.** And the “% E2 max” value [1, 10]?
**A.** 10%

**Q.** And the “Estrogen active [yes/no]” value ([1]; pure substance in ER-CALUX)?
**A.** yes

**Q.** What about the EC50 [1, 11] of the same compound?
**A.** 200 µM

**Q.** Which “endocrine activity in the in vitro tests used in this study” value ([1]; pure substance) does the source give for `CCCCCCCC/C=C\CCCCCCCCCCCC(N)=O` [13-Docosenamide (Z)] here?
**A.** not endocrine active

**Q.** And the “Estrogen active [yes/no]” value ([1]; pure substance in ER-CALUX)?
**A.** no

**Q.** And the EC50 [1, 11]?
**A.** > 500 µM

**Q.** For `CCCCOC(=O)CC(CC(=O)OCCCC)(OC(C)=O)C(=O)OCCCC` [Acetyl tributyl citrate (ATBC), Acetyl tributyl citrate], which “estrogenic or androgenic activity” value ([4]; based on published data ref 2) is on record?
**A.** does not seem to show estrogenic or androgenic activity

**Q.** For `C#C[C@]1(O)CC[C@H]2[C@@H]3CCc4cc(O)ccc4[C@H]3CC[C@@]21C` [17α-ethinyl estradiol, reference compound], which “fold lower ADI than 17β-estradiol” value [5] is on record?
**A.** approximately 400 fold

**Q.** What about the “in vitro estrogen activity compared with 17β-estradiol” value [4] of the same compound?
**A.** approximatively the same in vitro estrogen activity as the natural sex hormone 17β-estradiol

**Q.** And the “acceptable daily intake (ADI)” value ([2]; adult person (60 kg), based on working place thresholds ref 40)?
**A.** 7 ng
